The text below walks through data of patent publication US12692253B2, “Antimicrobial compounds and methods” (Curza Global, LLC, priority 2019, dated 2026).

The subject of assay [1] is E. coli S30 extract (bacterial protein synthesis). In words: E. coli S30 extract coupled transcription-translation luciferase assay (inhibition of bacterial protein synthesis). Type of assay: biochemical. The conditions noted are these: class by IC50 or % inhibition @ 1 μM, read-out: S30 IC50 (μM/% inhib.). The method, then: E. coli S30 extract: Inhibition of bacterial protein synthesis was determined using the E. coli S30 Extract System for Circular DNA (Promega catalog #L-2010) and Luciferase Assay Reagent (Promega catalog #E1500) with slight modifications to a published protocol. Fyfe, C., Sutcliffe, J. A. and Grossman, T. H. (2012) “Development and characterization of a Pseudomonas aeruginosa in vitro coupled transcription-translation assay system for evaluation of translation inhibitors” J. Microbiol. Methods 90(3), 256-261.
Compounds were serial diluted in 0.5 mL microcentrifuge tubes by mixing and transferring 50 μL from the highest concentration to 50 μL of water, mixing and transferring 50 μL of this 2-fold dilution to 50 μL of water. This mixing and transferring was repeated so that there are a total of 8 tubes with serial dilutions of compound at 10× the desired screening concentration that are ultimately diluted to 1× by the addition of S30 luciferase synthesis mixture. Serial dilutions of compounds were added (2 μL) to wells in a black round bottom 96-well plate. Water (2 μL) was used as a “no inhibitor” control in 4 wells/plate. No DNA control reaction mixture (20 μL; see below) was used as a control in 4 wells/plate for background luminescence. S30 luciferase synthesis mixture (18 μL; see below) was added to wells with compounds or water mixture and incubated at 37° C. for 1 hour. Reactions were stopped by transferring to 4° C. refrigerator for 5 minutes then 25 μL of luciferase activity mix was added. Luminescence was measured using a BioTek Synergy HTX plate reader. % Inhibition was determined relative to no inhibitor controls. • S30 luciferase synthesis mixture: • 445 μL S30 extract, circular • 712 μL S30 Premix without amino acids • 4.45 μL pBESTluc™ DNA (1 μg/μL) • 78 μL complete amino acid mixture • 267 μL water • No DNA control: • 20 μL S30 extract, circular • 32 μL S30 Premix without amino acids • 7 μL complete amino acid mixture • 21 μL water Rabbit Reticulocyte lysate

The target in assay [2] is Rabbit Reticulocyte Lysate (eukaryotic protein synthesis). In words: Rabbit reticulocyte lysate luciferase assay (inhibition of eukaryotic protein synthesis). Conditions: class by IC50 or % inhibition @ 1 μM, read-out: Rabbit reticulocyte IC50 (μM/% inhib.). In kind it is biochemical. On the procedure:
Inhibition of eukaryotic protein synthesis was determined using the Rabbit Reticulocyte Lysate System, Nuclease-Treated from Promega (catalog #L-4960) with slight modifications to the manufacturer's protocol. Compounds were serial diluted in 0.5 mL microcentrifuge tubes by mixing and transferring 50 μL from the highest concentration to 50 μL of water, mixing and transferring 50 μL of this 2-fold dilution to 50 μL of water. This mixing and transferring was repeated so that there are a total of 8 tubes with serial dilutions of compound at 10× the desired screening concentration that are ultimately diluted to 1× by the addition of rabbit reticulocyte luciferase synthesis mixture. Serial dilutions of compounds were added (2.5 μL) to wells in a black round bottom 96-well plate. Water (2.5 μL) was used as a “no inhibitor” control in 4 wells/plate. No RNA control reaction mixture (2 μL; see below) was used as a control in 4 wells/plate for background luminescence. Rabbit reticulocyte luciferase synthesis mixture (22.5 μL; see below) was added to wells with compounds or water mixture and incubated at 30° C. for 90 minutes. Luciferase assay reagent (25 μL) was added with luminescence measured using a BioTek Synergy HTX plate reader. % Inhibition was determined relative to no inhibitor controls.
Rabbit Reticulocyte Luciferase Synthesis Mixture:
• 1,000 μL rabbit reticulocyte lysate • 5.7 μL Luciferase Control RNA (1 μg/μL) • 26 μL complete amino acid mixture • 395 μL water • No RNA Control • 70 μL rabbit reticulocyte lysate • 2 μL complete amino acid mixture • 28 μL water Minimum Inhibitory Concentration (MIC)

The subject of assay [3] is E. coli (Ec). The assay is described as follows: Broth microdilution minimum inhibitory concentration (MIC), CLSI. Type of assay: cell-based. Conditions: growth medium supplemented with sodium bicarbonate; for MIC: Escherichia coli, read-out: E. coli + bicarb MIC. On the procedure: (§1) A certified BSL-2 laboratory was used for testing. Compounds were evaluated using the broth microdilution minimum inhibitory concentration (MIC) and minimum bactericidal concentration (MBC) assays defined by Clinical and Laboratory Standards Institute (CLSI) in the M26-A guideline against S. aureus (Sa), E. coli (Ec), K. pneumoniae (Kp), A. baumannn (Ab), E. faecalis (Ef) and P. aeruginosa (Pa).
(§2) MICs were determined using the Clinical Laboratory and Standards Institute (CLSI) Broth Microdilution Method with slight modification. Clinical and Laboratory Standards Institute (2012). “Methods for dilution antimicrobial susceptibility tests for bacteria that grow aerobically; approved standard, 9th ed. M07-A9 Clinical and Laboratory Standards Institute, Wayne, PA” Serial two-fold dilutions of compounds are prepared in sterile clear round-bottom 96-well plates.
(§3) To prepare microdilution trays, two-fold dilutions of antimicrobial agent are prepared in growth medium: Cation-Adjusted Mueller-Hinton Broth (CAMHB), or CAMHB supplemented with sodium bicarbonate (6.25 or 25 mM final concentration prepared from a 1.0M stock solution) or CAMHB supplemented with heat inactivated human serum (Fisher Cat. #BP2657100) 0-50% by adding 200 µL of the highest concentration to be tested (64 μg/mL, for example) in row A, mixing and transferring 100 μL from row A to 100 μL growth medium in row B, then repeating the mixing and transferring through row H of the 96-well plate, discarding the excess […] remaining. This slight modification to the CLSI protocol enables evaluation of MICs for 3 compounds per plate in triplicate, albeit with only 8 compound dilutions (CLSI protocol enables 2 compounds in triplicate with 10 dilutions). Bacterial suspensions are added to a final concentration of 5×10^4 CFU/well by adding 5 μL of a 1:10 dilution of a 0.5 McFarland suspension (1×10^8 CFU/mL) for each bacterium evaluated. Bacterial suspensions were prepared using the growth method described by CLSI. Well-isolated colonies (3-5 from an agar plate) were selected using a sterile loop and used to inoculate a tube containing 4 mL of CAMHB. The cultures are incubated at 35±2° C. until it achieves or exceeds the turbidity of the 0.5 McFarland standard, determined by measuring A600 (usually two to six hours). When growth exceeds a 0.5 McFarland standard, the turbidity is adjusted with broth to be equivalent to a 0.5 McFarland standard.

Assay [4] relates to P. aeruginosa (Pa). The description is as above. Type of assay: cell-based. The conditions noted are these: Pseudomonas aeruginosa, growth medium supplemented with sodium bicarbonate, read-out: Pa MIC + bicarb. On the procedure:
as §1, §2, §3

For `C[C@](N)(CF)C(=O)N1CCN(C(=O)Nc2ccn(-c3ccc(CN4C[C@@H]5[C@@H](N)[C@@H]5C4)cc3)c(=O)n2)CC1` [Compound 18], the IC50 in assay [1] is less than 0.5 µM; in assay [2] it was not below 1 µM. Moreover, the MIC in assay [3] is less than 8 µg/mL.

With `CC(C)(N)C(=O)N1CCN(C(=O)Nc2ccn(-c3ccc(CN4CCC5(CC4)CC5N)cc3)c(=O)n2)CC1` (stereo not drawn) [Compound 39], the values for the IC50 in assay [1] and in assay [2] were less than 0.5 µM and not below 1 µM, respectively. Also, the MIC in assay [3] was less than 8 µg/mL.

On to `CC(C)(N)C(=O)N1CCN(C(=O)Nc2ccn(-c3ccc(CN4C[C@@H](N)C5(CC5)C4)cc3)c(=O)n2)CC1` [Compound 19], for which the results for the IC50 in assay [1] and in assay [2] were 0.5 to 1 µM and not below 1 µM, respectively. The minimum inhibitory concentration (MIC) in assay [3] is less than 8 µg/mL.

As to `C[C@H]1CN(C(=O)C(C)(C)N)CCN1C(=O)Nc1ccn(-c2ccc(CN3C[C@@H]4[C@@H](N)[C@@H]4C3)cc2)c(=O)n1` [Compound 17], the figures for the IC50 in assay [1] and in assay [2] were less than 0.5 µM and not below 1 µM, respectively. For the same molecule, the minimal inhibitory concentration (MIC) is less than 8 µg/mL in assay [3] and more than 32 µg/mL in assay [4].

As for `C[C@](N)(CO)C(=O)N1CCN(C(=O)Nc2ccn(-c3ccc(CN4C[C@@H]5[C@@H](CN)[C@@H]5C4)cc3)c(=O)n2)CC1` [Compound 69], the IC50 in assay [1] is less than 0.5 µM; in assay [2], not below 1 µM. Besides, the MIC in assay [3] was less than 8 µg/mL.

Take `CC(C)(N)C(=O)N1CCN(C(=O)Nc2ccn(-c3ccc(CN4C[C@H]5CNC[C@H]5C4)cc3)c(=O)n2)CC1` [Compound 76]: the IC50 was less than 0.5 µM in assay [1] and not below 1 µM in assay [2]. For the same molecule, the minimum inhibitory concentration (MIC) in assay [3] is less than 8 µg/mL.

Regarding `CC(C)(N)C(=O)N1CCN(C(=O)Nc2ccn(-c3ccc(CN4CC[C@H]5NCC[C@H]5C4)cc3)c(=O)n2)CC1` [Compound 77], the IC50 was less than 0.5 µM in assay [1] and not below 1 µM in assay [2]. The MIC in assay [3] is less than 8 µg/mL.

On to `Cc1cc(-n2ccc(NC(=O)N3CCN(C(=O)C(C)(C)N)CC3)nc2=O)ccc1CN1C[C@@H]2[C@@H](N)[C@@H]2C1` [Compound 2], for which the IC50 in assay [1] is less than 0.5 µM; in assay [2], not below 1 µM. For the same molecule, the MIC in assay [3] is less than 8 µg/mL.

`CC(C)(N)CN1CCN(C(=O)Nc2ccn(-c3ccc(CN4C[C@@H]5[C@@H](N)[C@@H]5C4)cc3)c(=O)n2)CC1` [Compound 24]: the results for the IC50 in assay [1] and in assay [2] were 0.5 to 1 µM and not below 1 µM, respectively. In addition, in assay [3], the MIC is less than 8 µg/mL.

Regarding `CC(C)(N)C(=O)N1CCN(C(=O)Nc2ccn(-c3ccc(CN4CC5CC5(CN)C4)cc3)c(=O)n2)CC1` (stereo not drawn) [Compound 71], the values for the IC50 in assay [1] and in assay [2] were less than 0.5 µM and not below 1 µM, respectively. Further, the minimal inhibitory concentration (MIC) in assay [3] was less than 8 µg/mL.

On to `CC(C)(N)C(=O)N1CCN(C(=O)Nc2ccn(-c3ccc(CN4C[C@H](N)C5(CC5)C4)cc3)c(=O)n2)CC1` [Compound 16], for which the IC50 in assay [1] and in assay [2] was not below 1 µM each time. Moreover, the MIC in assay [3] is 8 to 32 µg/mL.

For `NC[C@H]1[C@@H]2CCN(C(=O)Nc3ccn(-c4ccc(CN5C[C@@H]6[C@@H](N)[C@@H]6C5)cc4)c(=O)n3)C[C@H]12` [Compound 51], the IC50 in assay [1] and in assay [2] was not below 1 µM throughout. The “E. coli + bicarb MIC” value in assay [3] is listed as “+ (An MIC (μg/mL) value that is 32 μg/mL or greater)”.

On to `NC[C@H]1[C@@H]2CCN(C(=O)Nc3ccn(-c4ccc(CN5C[C@@H]6[C@@H](N)[C@@H]6C5)cc4)c(=O)n3)C[C@H]12` [Compound 50], for which the IC50 in assay [1] and in assay [2] was not below 1 µM in each case. For the same molecule, in assay [3], the “E. coli + bicarb MIC” value is given as “+++ (An MIC value (μg/mL) that is less than 8 μg/mL)”.

`CC(C)(N)CN1CCN(C(=O)Nc2ccn(-c3ccc(CN4C[C@@H]5[C@@H](N)[C@@H]5C4)cc3)c(=O)n2)CC1=O` [Compound 47]: the IC50 in assay [1] is 0.5 to 1 µM; in assay [2], not below 1 µM. Further, the MIC in assay [3] was 8 to 32 µg/mL.

For the molecule `CC(C)(N)C(=O)N1CCN(C(=O)Nc2ccn(-c3ccc(CN4CCC5(CCNCC5)CC4)cc3)c(=O)n2)CC1` [Compound 82], the figures for the IC50 in assay [1] and in assay [2] were less than 0.5 µM and not below 1 µM, respectively. Besides, the MIC in assay [3] was less than 8 µg/mL.

As for `CC(N)(C(=O)N1CCN(C(=O)Nc2ccn(-c3ccc(CN4C[C@@H]5[C@@H](N)[C@@H]5C4)cc3)c(=O)n2)CC1)C(F)(F)F` (stereo partly drawn) [Compound 15], the IC50 in assay [1] is not below 1 µM. Further, the MIC in assay [3] was more than 32 µg/mL.

In the case of `N[C@@H]1[C@H]2CN(Cc3ccc(-n4ccc(NC(=O)N5CCC(C6OCCC[C@@H]6N)CC5)nc4=O)cc3)C[C@@H]12` (stereo partly drawn) [Compound 52], the IC50 in assay [1] and in assay [2] was not below 1 µM throughout. Moreover, the MIC in assay [3] is less than 8 µg/mL.

In the case of `CC(C)(N)C(=O)N1CCN(C(=O)Nc2ccn(-c3cc(F)c(CN4C[C@@H]5[C@@H](N)[C@@H]5C4)c(F)c3)c(=O)n2)CC1` [Compound 8], the IC50 in assay [1] is not below 1 µM. In addition, in assay [3], the minimum inhibitory concentration (MIC) was more than 32 µg/mL.

In the case of `CC(C)(N)C(=O)N1CCN(C(=O)Nc2ccn(-c3ccc(CN4CC[C@@H]5[C@@H](CN)[C@@H]5C4)cc3)c(=O)n2)CC1` [Compound 72], the IC50 is less than 0.5 µM in assay [1] and not below 1 µM in assay [2]. In addition, in assay [3], the minimal inhibitory concentration (MIC) is less than 8 µg/mL.

For `CC(C)(N)C(=O)N1CCN(C(=O)Nc2ccn(-c3ccc(CN4CCC5(CC5N)C4)cc3)c(=O)n2)CC1` (stereo not drawn) [Compound 21], the IC50 was less than 0.5 µM in assay [1] and not below 1 µM in assay [2]. Besides, in assay [3], the minimal inhibitory concentration (MIC) is less than 8 µg/mL.

On to `C[C@](N)(CO)C(=O)N1CCN(C(=O)Nc2ccn(-c3ccc(CCN4C[C@@H]5[C@@H](N)[C@@H]5C4)cc3)c(=O)n2)CC1` [Compound 85], for which the IC50 in assay [1] was not below 1 µM. Further, the MIC in assay [3] was more than 32 µg/mL.

Turning to `CC(C)(N)C(=O)N1CCCN(C(=O)Nc2ccn(-c3ccc(CN4C[C@@H]5[C@@H](N)[C@@H]5C4)cc3)c(=O)n2)CC1` [Compound 26], the IC50 in assay [1] is not below 1 µM. The MIC in assay [3] is less than 8 µg/mL.

A word on the MIC: it is the least concentration at which growth counts as inhibited.
